From patent US20150175655A1 (priority 2012, published 2015)

biological target: T1, NS3 genotype 3a protease (UniProt Q81258); experiment: Ki determination, NS3 protease genotype 3a (fluorogenic depsipeptide substrate); format: biochemical, hepatitis C virus; conditions: 200 pM enzyme, 20 μM NS4A peptide, 2 μM substrate, read-out: Ki 3A
T1 construct: Purified NS3 protease domain (amino acids 1-181) of the genotype 1b and 3a virus were generated as above; fused on or other part: N-terminal hexahistidine tag and rTEV protease cleavage site (vector p28-N6H-Tev-NS3(181)3)
T1 sequence (Q81258 1033-1663): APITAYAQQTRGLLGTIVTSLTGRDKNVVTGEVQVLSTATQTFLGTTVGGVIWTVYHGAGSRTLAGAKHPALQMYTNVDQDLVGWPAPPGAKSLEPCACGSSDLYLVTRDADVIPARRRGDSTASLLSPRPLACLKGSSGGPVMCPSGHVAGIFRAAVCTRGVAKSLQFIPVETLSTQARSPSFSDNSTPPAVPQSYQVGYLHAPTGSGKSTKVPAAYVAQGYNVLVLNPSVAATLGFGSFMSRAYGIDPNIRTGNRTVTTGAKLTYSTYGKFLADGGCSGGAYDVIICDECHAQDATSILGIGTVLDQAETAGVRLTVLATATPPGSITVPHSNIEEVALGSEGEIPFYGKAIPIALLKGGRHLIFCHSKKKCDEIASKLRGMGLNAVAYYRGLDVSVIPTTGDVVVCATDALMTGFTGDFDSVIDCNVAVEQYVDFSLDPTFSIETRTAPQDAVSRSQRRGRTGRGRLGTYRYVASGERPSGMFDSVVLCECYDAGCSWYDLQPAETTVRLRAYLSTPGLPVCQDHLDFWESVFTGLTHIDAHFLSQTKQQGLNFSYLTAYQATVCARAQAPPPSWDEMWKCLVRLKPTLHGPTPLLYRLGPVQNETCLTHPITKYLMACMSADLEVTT
How it was run: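 Refolded His-tagged NS3 protease domain (aa 1-181, genotype 3a) at 200 pM with 20 μM NS4A peptide was pre-incubated 1 h at RT with inhibitor (100 nM–5 pM, 3-fold), then 2 μM FRET depsipeptide substrate was added in HEPES/40% glycerol/10% DMSO buffer. Steady-state rates over 90-120 min (ex 340/em 490 nm) versus inhibitor concentration gave Ki.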

In order of falling Ki:
1. CC[C@@H]1[C@@H]2CN(C(=O)[C@H](C(C)(C)C)NC(=O)O[C@@H]3C[C@H]3CC/C=C/C(F)(F)C3Nc4ccc(C#N)cc4N=C3O2)[C@@H]1C(=O)N[C@]1(C(=O)NS(=O)(=O)C2(C)CC2)C[C@H]1C(F)F (stereo partly drawn) [Example 78, (1aR,5S,8S,9S,10R,19E,22aR)-5-tert-butyl-14-cyano-N-[(1R,2R)-2-(difluoromethyl)-1-{[(1-methylcyclopropyl)sulfonyl]carbamoyl}cyclopropyl]-9-ethyl-18,18-difluoro-3,6-dioxo-1,1a,3,4,5,6,9,10,17,17a,18,21,22,22a-tetradecahydro-8H-7,10-methanocyclopropa[18,19][1,10,3,6]dioxadiazacyclononadecino[11,12-b]quinoxaline-8-carboxamide]  820 pM
2. CC[C@@H]1[C@@H]2CN(C(=O)[C@H](C(C)(C)C)NC(=O)O[C@]3(C)CCC[C@H]3CCCCCc3nc4ccc(OC)cc4nc3O2)[C@@H]1C(=O)N[C@]1(C(=O)NS(=O)(=O)C2(C)CC2)C[C@H]1CC(F)F [Example 41, (3aR,7S,10S,11S,12R,24aR)-7-tert-butyl-N-[(1R,2S)-2-(2,2-difluoroethyl)-1-{[(1-methylcyclopropyl)sulfonyl]carbamoyl}cyclopropyl]-11-ethyl-16-methoxy-3a-methyl-5,8-dioxo-1,2,3,3a,5,6,7,8,11,12,20,21,22,23,24,24a-hexadecahydro-10H-9,12-methanocyclopenta[18,19][1,10,3,6]dioxadiazacyclononadecino[11,12-b]quinoxaline-10-carboxamide]  790 pM
3. C[C@@H]1[C@@H]2CN(C(=O)[C@H](C(C)(C)C)NC(=O)O[C@@H]3C[C@H]3CCCCC(F)(F)c3nc4ccc(Cl)cc4nc3O2)[C@@H]1C(=O)N[C@]1(C(=O)NS(=O)(=O)C2(C)CC2)C[C@H]1C(F)F [Example 88, (1aR,5S,8S,9S,10R,22aR)-5-tert-butyl-14-chloro-N-[(1R,2R)-2-(difluoromethyl)-1-{[(1-methylcyclopropyl)sulfonyl]carbamoyl}cyclopropyl]-18,18-difluoro-9-methyl-3,6-dioxo-1,1a,3,4,5,6,9,10,18,19,20,21,22,22a-tetradecahydro-8H-7,10-methanocyclopropa[18,19][1,10,3,6]dioxadiazacyclononadecino[11,12-b]quinoxaline-8-carboxamide]  290 pM
4. COc1ccc2nc3c(nc2c1)O[C@H]1CN(C(=O)[C@H](C(C)(C)C)NC(=O)O[C@@H]2C[C@H]2CCCCC3F)[C@H](C(=O)N[C@]2(C(=O)NS(=O)(=O)C3(C)CC3)C[C@H]2C(F)F)[C@@H]1C (stereo partly drawn) [Example 47, (1aR,5S,8S,9S,10R,22aR)-5-tert-butyl-N-[(1R,2R)-2-(difluoromethyl)-1-{[(1-methylcyclopropyl)sulfonyl]carbamoyl}cyclopropyl]-18-fluoro-14-methoxy-9-methyl-3,6-dioxo-1,1a,3,4,5,6,9,10,18,19,20,21,22,22a-tetradecahydro-8H-7,10-methanocyclopropa[18,19][1,10,3,6]dioxadiazacyclononadecino[11,12-b]quinoxaline-8-carboxamide]  190 pM
